According to patent EP0226973A2, “4-Bis(2'-hydroxyethyl)amino-1-(3'-hydroxypropyl)amino-2-nitro-benzene, process for its preparation and means for dyeing hair” (Wella Aktiengesellschaft, priority 1985, dated 1987):
Converted amounts (≈) assume the structure as drawn. Like-named read-outs stand apart in the source and are kept apart here.

How the values were obtained:
[1] = Solubility in water; assay type: physicochemical; details: read-out: Löslichkeit in Wasser
[2] = Ames mutagenicity test; assay type: cell-based; details: Mutagenitätstest nach Ames
[3] = tested on: Human-Lymphozyten; assay: Human lymphocyte mutagenicity test; assay type: cell-based; details: Human-Lymphozytentest
[4] = Toxicological properties (general statement)

Structure (SMILES) | solubility [1] | mutagene Wirkung [2] | mutagene Wirkung [3] | toxikologische Eigenschaften [4] | solubility ([1]; ohne Zusatz von Lösungsvermittlern)
O=[N+]([O-])c1cc(N(CCO)CCO)ccc1NCCCO [Farbstoff (I), 4-Bis(2′-hydroxyethyl)amino-l-(3′-hydroxypropyl)amino-2-nitro-benzol] | ~20000 µg/mL (≈ 66.8 mM) | keine mutagene Wirkung | keine mutagene Wirkung | – | –
CNc1ccc(N(CCO)CCO)cc1[N+](=O)[O-] [Farbstoff (V), 4-Bis(2′-hydroxyethyl)amino-l-methylamino-2-nitro-benzols] | ~5000 µg/mL (≈ 19.6 mM) | im Gegensatz zu Farbstoff (V) | im Gegensatz zu Farbstoff (V) | sehr unbefriedigend | –
CCNc1ccc(N(CCO)CCO)cc1[N+](=O)[O-] [Farbstoff (III), 4-Bis(2′-hydroxyethyl)amino-l-ethylamino-2-nitro-benzol] | – | – | – | – | < 1500 µg/mL
